Series [1] is described as follows: acute toxicity investigation (LD50). The note with it: mouse, in vivo, mice. Here is the method:
The compounds prepared were subjected to acute toxicity investigations. For this purpose, the compounds under test were dissolved in an aqueous sodium carbonate solution and administered intraperitoneally (i.p.) or intravenously (i.v.) to the animals (40 days old CFLP female mice).
Some characteristic LD50 values of the compounds of the invention are as follows: […]

The test system of series [2] is CFY male rats. The series can be described thus: liver protecting effect: allyl alcohol intoxication followed by treatment with the compounds under test. The series is classed as in vivo, rat (CFY male). Particulars: compound 100 mg/kg of body-weight, after 24 hours, before 1.81±0.43, allyl alcohol 4.16±1.63. The protocol: (§1) In order to investigate the liver protecting effect, the compounds were tested at CFY male rats with 200 to 240 g of body-weight after a starvation for 18 hours.
(§2) An experimental liver damage was elicited by using carbon tetrachloride, allyl alcohol or galactosamine. The activity of the serum glutamate-oxalacetate-transaminase (SGOT), the triglyceride (TG) content of the liver as well as the histological picture of the liver were studied.
(§3) Liver damaging agents (1.5 g/kg of body-weight of carbon tetrachloride orally; 0.75 g/kg of body-weight of galactosamine intraperitoneally) were administered to the starved animals, whereupon the animals received the compound under test in a dose of 100 mg/kg of body-weight intraperitoneally after 6 hours.
(b) The results of the allyl alcohol intoxication followed by treatment with the compounds under test are as follows:
After 24 hours, the animals were killed and the activity of the serum glutamate-pyruvate-transaminase (SGPT) was determined. After a treatment with allyl alcohol, the SGPT level was increased from a value of 1.81±0.43 μmoles/ml.h. to 4.16±1.63 μmoles/ml. h. This increase was diminished to 2.84±0.97 μmoles/ml.h. by a treatment with a 100 mg/kg of body-weight dose of the compound described in Example 1.

The subject of series [3] is CFY male rats. As to the kind of experiment: liver protecting effect: galactosamine damage followed by treatment with the compounds under test (histology). The series is classed as in vivo, rat (CFY male). The note with it: galactosamine 0.75 g/kg i.p., compound i.p. 6 hours later.
Series [4] relates to CFY male rats. The series can be described thus: liver protecting effect: carbon tetrachloride intoxication followed by treatment with the compounds under test. The class given is in vivo, rat (CFY male). Particulars: CCl4 1.5 g/kg orally, compound 100 mg/kg i.p. after 6 hours; for TG (triglyceride content of the liver): control 40 ± 8, CCl4 alone 86 ± 17; for SGOT activity: control 81.7 ± 16, CCl4 alone 269.0 ± 14. Here is the method:
as §1, §2, §3
(a) The results of the carbon tetrachloride intoxication followed by treatment with the compounds under test are as follows: […]

From US4775675A, “Thiazolidinecarboxylic acid derivatives and treatment of liver diseases therewith” (Biogal Gyogyszergyar, priority 1985, dated 1988) come the findings set out here.

Structures can show the parent of a compound that is named as a salt.

The term LD50 denotes the dose at which mortality reaches 50%. Read a high LD50 as lower toxicity. In series [1] (iv), `CC1(C)SC(c2ccc([N+](=O)[O-])o2)N[C@H]1C(=O)O` (stereo partly drawn) [Example 1, 5,5-Dimethyl-2-(5-nitro-2-furyl)-thiazolidine-4(S)-carboxylic acid] had an LD50 of 2190 mg/kg. The “SGPT level (activity of the serum glutamate-pyruvate-transaminase)” value in series [2] came out at 2.84 ± 0.97 µmol/mL/h. Moreover, in series [3], the “number of focally appearing parenchymal necroses” value is given as “diminished” and the “severity of the alterations characteristic of the galactosamine hepatitis” value is recorded as “diminished”. In series [4], this compound yielded a TG (triglyceride content of the liver) of 51 ± 15 µg/mg protein and an SGOT activity of 224.0 ± 14 unit/liter.
As for `CC1(C)SC(c2ccco2)N[C@H]1C(=O)O` (stereo partly drawn) [Example 2, 5,5-Dimethyl-2-(2-furyl)-thiazolidine-4(S)-carboxylic acid], in series [3], the “number of focally appearing parenchymal necroses” value was “diminished” and the “severity of the alterations characteristic of the galactosamine hepatitis” value is “diminished”. Moreover, in series [4], the TG (triglyceride content of the liver) was 84 ± 6 µg/mg protein and the SGOT activity is 229.0 ± 14 unit/liter.
In series [4], `Cn1cccc1C1N[C@@H](C(=O)O)C(C)(C)S1` (stereo partly drawn) [Example 4, 5,5-Dimethyl-2-(N-methyl-2-pyrrolyl)thiazolidine-4(S)-carboxylic acid] returned a TG (triglyceride content of the liver) of 114 ± 24 µg/mg protein and an SGOT activity of 241.0 ± 21 unit/liter.
In series [4], `CC1(C)SC(c2cccnc2)N[C@H]1C(=O)O` (stereo partly drawn) [Example 5, 5,5-Dimethyl-2-(3-pyridyl)-thiazolidine-4(S)-carboxylic acid] came in with a TG (triglyceride content of the liver) of 61 ± 14 µg/mg protein and an SGOT activity of 243.0 ± 21 unit/liter.
In series [4], `CC1(C)SC(c2ccncc2)N[C@H]1C(=O)O` (stereo partly drawn) [Example 6, 5,5-Dimethyl-2-(4-pyridyl)-thiazolidine-4(S)-carboxylic acid] showed a TG (triglyceride content of the liver) of 88 ± 20 µg/mg protein and an SGOT activity of 250.0 ± 13 unit/liter.
In series [4], `CC1(C)SC(c2cc3ccccc3o2)N[C@H]1C(=O)O` (stereo partly drawn) [Example 7, 2-(2-Benzofuryl)-5,5-dimethylthiazolidine-4(S)-carboxylic acid] showed a TG (triglyceride content of the liver) of 61 ± 13 µg/mg protein and an SGOT activity of 224.0 ± 14 unit/liter.
Turning to `CC1(C)SC(c2ccc3c(c2)CCC3)N[C@H]1C(=O)O` (stereo partly drawn) [Example 8, 5,5-Dimethyl-2-(5-indanyl)-thiazolidine-4(S)-carboxylic acid], in series [4], the TG (triglyceride content of the liver) stood at 76 ± 10 µg/mg protein and the SGOT activity is given as 234.0 ± 23 unit/liter.
For `CC1(C)SC(c2cccc([N+](=O)[O-])c2)N[C@H]1C(=O)O` (stereo partly drawn) [Example 9, 5,5-Dimethyl-2-(3-nitrophenyl)-thiazolidine-4(S)-carboxylic acid magnesium salt], in series [4], the TG (triglyceride content of the liver) was 83 ± 19 µg/mg protein and the SGOT activity is listed as 232.0 ± 34 unit/liter.
In the same order, the values of `CC1(C)SC(c2ccc(F)cc2)N[C@H]1C(=O)[O-].[K+]` (stereo partly drawn) [Example 10, 5,5-Dimethyl-2-(4-fluorophenyl)-thiazolidine-4(S)-carboxylic acid and potassium salt] are 81 ± 11 µg/mg protein and 227.0 ± 40 unit/liter.
With `CSc1ccc(C2N[C@@H](C(=O)O)C(C)(C)S2)cc1` (stereo partly drawn) [Example 11, 5,5-Dimethyl-2-(4-methylmercaptophenyl)-thiazolidine-4(S)-carboxylic acid], in series [4], the TG (triglyceride content of the liver) was determined as 70 ± 14 µg/mg protein and the SGOT activity was determined as 235.0 ± 19 unit/liter.
In the case of `CC1(C)SC(CO)N[C@H]1C(=O)O` (stereo partly drawn) [Example 14, 5,5-Dimethyl-2-hydroxymethylthiazolidine-4(S)-carboxylic acid], in series [1] (ip), the 50% lethal dose (LD50) was 5000 mg/kg.
Take `CC(=O)N1[C@@H](c2ccc(Cl)cc2)SC(C)(C)[C@@H]1C(=O)O` [Example 22, 3-Acetyl-2(R)-(4-chlorophenyl)-5,5-dimethylthiazolidine-4(S)-carboxylic acid]: the LD50 in series [1] (ip) was found to be 550 mg/kg.
`CC(=O)N1[C@@H](C(=O)O)C(C)(C)S[C@H]1c1ccccc1` [Example 27, 3-Acetyl-5,5-dimethyl-2(S)-phenylthiazolidine-4(S)-carboxylic acid]: in series [1] (ip), the 50% lethal dose (LD50) came to 1500 mg/kg. Against the preceding compound, the LD50 is about 2.7-fold higher.
With `CC(=O)N1[C@@H](C(=O)O)C(C)(C)S[C@H]1c1ccc([N+](=O)[O-])o1` [Example 30, 3-Acetyl-5,5-dimethyl-2(S)-(5-nitro-2-furyl)-thiazolidine-4(S)-carboxylic acid], the LD50 in series [1] (ip) amounted to 2500 mg/kg.
With `Oc1cc(O)c2c(c1)O[C@H](c1ccc(O)c(O)c1)[C@@H](O)C2` [catergen, (+)2-(3,4-dihydroxyphenyl)-3,5,7-chromanetriol, reference compound], in series [4], the TG (triglyceride content of the liver) is 77 ± 7 µg/mg protein and the SGOT activity was found to be 241.0 ± 23 unit/liter.
